Target: T1, human PPARγ2 (Homo sapiens, UniProt P37231)
T1 construct: the amino acids 182 to 505 of human PPARγ2; expressed in transfected cells; host or cells: COS7 cells (African green monkey kidney)
T1 sequence (P37231 182-505): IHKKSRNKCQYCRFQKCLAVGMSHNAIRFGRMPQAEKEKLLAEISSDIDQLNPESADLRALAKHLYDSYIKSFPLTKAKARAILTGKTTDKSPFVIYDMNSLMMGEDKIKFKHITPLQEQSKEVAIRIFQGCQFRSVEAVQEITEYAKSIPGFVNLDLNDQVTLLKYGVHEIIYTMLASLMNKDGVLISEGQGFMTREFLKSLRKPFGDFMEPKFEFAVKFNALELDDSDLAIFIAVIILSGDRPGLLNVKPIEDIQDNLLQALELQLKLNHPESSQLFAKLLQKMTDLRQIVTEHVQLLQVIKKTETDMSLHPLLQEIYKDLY
Test: PPARγ activation activity, Gal4-PPARγ2 LBD luciferase transfection assay using COS7 cells
Type: cell-based
Details: for EC50: COS7 cells, 16 hours, luciferase activity relative to rosiglitazone = 100%, read-out: EC50; for Emax: COS-7, 16 h, maximum activity strength relative to the maximum activity of rosiglitazone, read-out: % MAX vs Rosiglitazone
Procedure: The agonistic activity of the compounds of the invention on PPARγ was measured based on the transfection assay using COS7 cells (DS Pharma Biomedical Co., Ltd., Osaka, Japan), which are the cell line derived from the kidney of the African green monkey. COS7 cells were cultured under 5% CO2 concentration, and DMEM medium containing 10% fetal bovine serum, glutamic acid, and antibiotics was used as a medium.
As an expression vector, a chimera in which DNA binding domain of Gal4, which is a yeast transcription factor, and ligand binding domain of human PPARγ2 are fused, i.e., a fused product between the amino acids 1 to 147 of Gal4 transcription factor and the amino acids 182 to 505 of human PPARγ2, was used. Furthermore, as a reporter vector, a firefly luciferase containing five copies of Gal4 recognition sequence in the promoter region was used. Plasmid transfection to the cells was performed according to a method which uses jetPEI (trade name, manufactured by Funakoshi Co., Ltd., Tokyo, Japan). Furthermore, β-galactosidase expression vector was employed as an internal standard.
After the transfection of the cells, the medium was replaced with a DMEM medium (containing 1% serum) added with the compound, and the cells were further cultured for 16 hours. After that, the luciferase activity and β-galactosidase activity in the cell lysis solution were measured.
For the present test, dimethyl sulfoxide (DMSO) was used for dissolution and dilution of the test compounds, and during the cell treatment, the DMSO concentration in DMEM medium (containing 1% serum) was adjusted to 0.1%. As a positive compound, rosiglitazone (trade name, manufactured by ALEXIS Corporation, Switzerland) was used. The luciferase activity (%) of the test compounds (1 to 30 μmol/L) was calculated when the luciferase activity of rosiglitazone (3 to 10 μmol/L) is 100% and the luciferase activity in the absence of the test compound is 0%. The 50% effective concentration of the test compound (EC50, 50% effect concentration) was calculated by using SAS Preclinical Package Ver5.0 (trade name, manufactured by SAS institute Japan Co., Tokyo, Japan), which is a statistical analysis program.

SMILES	EC50 [nM]	Emax [%]
CCCCc1nc(C)n(-c2ncc(OC)cn2)c(=O)c1Cc1cc(CCC)c(OC(C(=O)O)c2ccc(Cl)cc2)c(CCC)c1 (stereo not drawn) [Example 18, 2-[4-[{4-butyl-1-(5-methoxypyrimidin-2-yl)-2-methyl-6-oxo-1,6-dihydropyrimidin-5-yl}methyl]-2,6-dipropylphenoxy]-2-(4-chlorophenyl)acetic acid]	1400	49.1
CCCCc1nc(C)n(-c2ccccn2)c(=O)c1Cc1cc(CCC)c(OC(c2ccccc2)c2noc(=O)[nH]2)c(CCC)c1 (stereo not drawn) [Example 5, 3-[[4-[{4-butyl-2-methyl-6-oxo-1-(pyridin-2-yl)-1,6-dihydropyrimidin-5-yl}methyl]-2,6-dipropylphenoxy](phenyl)methyl]-1,2,4-oxadiazol-5(4H)-one]	1190	35.1
CCCCc1nc(C)n(-c2ccccn2)c(=O)c1Cc1cc(CCC)c(OC(C(=O)NS(C)(=O)=O)c2ccccc2)c(CCC)c1 (stereo not drawn) [Example 6, 2-[4-[{4-butyl-2-methyl-6-oxo-1-(pyridin-2-yl)-1,6-dihydropyrimidin-5-yl}methyl]-2,6-dipropylphenoxy]-N-(methylsulfonyl)-2-phenyl acetoamide]	3190	
CCCCc1nc(C)n(-c2ncc(OCc3ccccc3)cn2)c(=O)c1Cc1cc(CCC)c(OC(C(=O)O)c2ccccc2)c(CCC)c1 (stereo not drawn) [Example 19, 2-[4-[[1-[5-(benzyloxy)pyrimidin-2-yl]-4-butyl-2-methyl-6-oxo-1,6-dihydropyrimidin-5-yl]methyl]-2,6-dipropylphenoxy]-2-phenylacetic acid]	650	49.9
CCCc1cc(Cc2c(CC)nc(C)n(-c3ccccn3)c2=O)cc(CCC)c1OC(C(=O)O)c1ccccc1 (stereo not drawn) [Example 3]	3520	
CCCCc1nc(C)n(-c2ccccn2)c(=O)c1Cc1cc(CCC)c(OC(C(=O)O)c2ccccc2OC)c(CCC)c1 (stereo not drawn) [Example 10, 2-[4-[{4-butyl-2-methyl-6-oxo-1-(pyridin-2-yl)-1,6-dihydropyrimidin-5-yl}methyl]-2,6-dipropylphenoxy]-2-(2-methoxyphenyl)acetic acid]	3290	25.6
CCCCc1nc(C)n(-c2ccccn2)c(=O)c1Cc1cc(CCC)c(OC(C(=O)O)c2ccccc2Cl)c(CCC)c1 (stereo not drawn) [Example 7]	3460	23.3

Further lines, results first:

EC50 [nM]	Emax [%]	SMILES
2020	41.4	CCCCc1nc(C)n(-c2ccccn2)c(=O)c1Cc1cc(CCC)c(OC(C(=O)O)c2cccc(Cl)c2)c(CCC)c1 (stereo not drawn) [Example 8, 2-[4-[{4-butyl-2-methyl-6-oxo-1-(pyridin-2-yl)-1,6-dihydropyrimidin-5-yl}methyl]-2,6-dipropylphenoxy]-2-(3-chlorophenyl)acetic acid]
2490		CCCCc1nc(C)nc(OCc2ccccc2)c1Cc1cc(CCC)c(OC(C(=O)O)c2ccccc2)c(CCC)c1 (stereo not drawn) [Example 29]
1210		CCCCc1nc(CCc2ccc(CC)cn2)[nH]c(=O)c1Cc1cc(CCC)c(OC(C(=O)O)c2ccccc2)c(CCC)c1 (stereo not drawn) [Example 31]
3910	25.2	CCCc1cc(Cc2c(CCC)nc(C)n(-c3ccccn3)c2=O)cc(CCC)c1OC(C(=O)O)c1ccccc1 (stereo not drawn) [Example 2, 2-[4-[{2-methyl-6-oxo-4-propyl-1-(pyridin-2-yl)-1,6-dihydropyrimidin-5-yl}methyl]-2,6-dipropylphenoxy]-2-phenylacetic acid]
480	42.9	CCCCc1nc(C)n(-c2ccc(OCC)cc2)c(=O)c1Cc1cc(CCC)c(OC(C(=O)O)c2ccccc2)c(CCC)c1 (stereo not drawn) [Example 13]
2400		CCCCc1nc(C)nc(OCCOC)c1Cc1cc(CCC)c(OC(C(=O)O)c2ccccc2)c(CCC)c1 (stereo not drawn) [Example 32, 2-[4-[{4-butyl-6-(2-methoxyethoxy)-2-methylpyrimidin-5-yl}methyl]-2,6-dipropylphenoxy]-2-phenylacetic acid]

From patent publication US20120046308A1, “NOVEL ALPHA-PHENOXYBENZENEACETIC ACID DERIVATIVE AND PHARMACEUTICAL PREPARATION COMPRISING SAME” (KOWA COMPANY, LTD., priority 2009, published 2012)
